This assay concerns the target T1, IKK-2 (Homo sapiens, UniProt O14920, S177E/S181E).
T1 construct: His6
T1 sequence (O14920 1-756 S177E/S181E): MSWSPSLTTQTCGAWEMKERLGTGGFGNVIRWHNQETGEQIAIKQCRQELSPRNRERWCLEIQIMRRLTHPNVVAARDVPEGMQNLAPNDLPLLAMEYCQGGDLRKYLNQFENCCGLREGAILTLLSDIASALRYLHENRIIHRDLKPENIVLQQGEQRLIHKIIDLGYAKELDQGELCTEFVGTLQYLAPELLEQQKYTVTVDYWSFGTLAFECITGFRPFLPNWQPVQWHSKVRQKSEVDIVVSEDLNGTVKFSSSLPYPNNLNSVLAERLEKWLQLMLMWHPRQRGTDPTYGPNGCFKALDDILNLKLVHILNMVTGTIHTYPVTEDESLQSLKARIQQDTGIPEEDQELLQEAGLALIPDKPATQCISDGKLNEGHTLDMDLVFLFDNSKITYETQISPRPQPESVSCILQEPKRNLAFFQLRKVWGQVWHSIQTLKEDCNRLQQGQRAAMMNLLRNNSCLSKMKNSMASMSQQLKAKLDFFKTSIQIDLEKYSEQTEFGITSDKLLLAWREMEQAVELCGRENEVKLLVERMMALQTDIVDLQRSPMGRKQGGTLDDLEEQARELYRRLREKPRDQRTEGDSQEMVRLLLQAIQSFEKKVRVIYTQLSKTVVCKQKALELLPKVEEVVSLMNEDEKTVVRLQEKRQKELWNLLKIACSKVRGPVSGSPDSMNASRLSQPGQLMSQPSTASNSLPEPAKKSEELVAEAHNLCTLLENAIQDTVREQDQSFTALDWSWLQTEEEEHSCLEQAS
In words: IKK-2 Enzyme Assay. The note with it: read-out: IC50 value in the IKK-2 Enzyme Assay. It is filed as biochemical. The method, then: The mixture is preincubated for 15 minutes at room temperature. […] After 30 minutes the precipitate is harvested onto a filter plate to which 50 μl of scintillation fluid is added and then quantified by a scintillation counter.

The mark [1] stands for this setting: more preferred compounds, 500 nM or less.
Setting [2] is: preferred compounds, 1 μM or less.

Structures can show the parent of a compound that is named as a salt. Where two headings read alike, the source gives them in different places. A value given as a limit tells only on which side of the number the result lay.

For the compound `CC(=O)N1CCCN(C(=O)c2ccc(Nc3nccc(-c4ccc(Cl)cc4)n3)cc2)CC1` [Compound 17-160], the IC50 under setting [1] is ≤ 500 nM and the IC50 under setting [2] was ≤ 1000 nM.

`O=C(c1ccc(Nc2nccc(-c3ccc(Cl)cc3)n2)cc1)N1CCN(Cc2cccnc2)CC1` [Compound 17-161]: the IC50 is, setting by setting: under setting [1], ≤ 500 nM; under setting [2], ≤ 1000 nM.

As to `CCN(C(C)=O)C1CCN(C(=O)c2ccc(Nc3nccc(-c4ccc(Cl)cc4)n3)cc2)C1` (stereo not drawn) [Compound 17-162], the half-maximal inhibitory concentration (IC50) reads like this: under setting [1], ≤ 500 nM; under setting [2], ≤ 1000 nM.

For the compound `CC(=O)N(C)C1CCN(C(=O)c2ccc(Nc3nccc(-c4ccc(Cl)cc4)n3)cc2)C1` (stereo not drawn) [Compound 17-163], the IC50 was ≤ 500 nM under setting [1] and ≤ 1000 nM under setting [2].

In the case of `O=C(c1ccc(Nc2nccc(-c3ccc(Cl)cc3)n2)cc1)N1CCC(N2CCCCC2)CC1` [Compound 17-169], the IC50 reads like this: under setting [1], ≤ 500 nM; under setting [2], ≤ 1000 nM.

For `O=C(c1ccc(Nc2nccc(-c3ccc(Cl)cc3)n2)cc1)N1CCC(N2CCCC2)CC1` [Compound 17-171], the IC50 under setting [1] was ≤ 500 nM and the IC50 under setting [2] is ≤ 1000 nM.

In the case of `C[C@@H]1CN(C(=O)c2ccc(Nc3nccc(-c4ccc(Cl)cc4)n3)cc2)C[C@H](C)N1` [Compound 17-190], the IC50 is ≤ 500 nM under setting [1] and ≤ 1000 nM under setting [2].

Take `O=C(c1ccc(Nc2nccc(-c3ccc(Cl)cc3)n2)cc1)N1CCN(CCO)CC1` [Compound 17-215]: the IC50 under setting [1] was ≤ 500 nM and the IC50 under setting [2] was ≤ 1000 nM.

In the case of `O=C(c1ccc(Nc2nccc(-c3ccc(Cl)cc3)n2)cc1)N1CCNCC1` [Compound 18, 4-{[4-(4-chlorophenyl)pyrimidin-2-yl]amino}benzoic acid piperazine amide hydrochloride], the IC50 reads like this: under setting [1], ≤ 500 nM; under setting [2], ≤ 1000 nM.

On to `CC(=O)NC1CCN(C(=O)c2ccc(Nc3nccc(-c4ccc(Cl)cc4)n3)cc2)CC1` [Compound 20-1, N-{1-[(4-{[4-(4-Chlorophenyl)pyrimidin-2-yl]amino}phenyl)carbonyl]-4-piperidyl}acetamide], for which the IC50 under setting [1] is ≤ 500 nM and the IC50 under setting [2] was ≤ 1000 nM.

With `Cc1noc(C)c1C(=O)NC1CCN(C(=O)c2ccc(Nc3nccc(-c4ccc(Cl)cc4)n3)cc2)CC1` [Compound 20-2], the IC50 is ≤ 500 nM under setting [1] and ≤ 1000 nM under setting [2].

As to `O=C(NC1CCN(C(=O)c2ccc(Nc3nccc(-c4ccc(Cl)cc4)n3)cc2)CC1)c1cccs1` [Compound 20-3], the IC50 under setting [1] is ≤ 500 nM and the 50% inhibitory concentration (IC50) under setting [2] was ≤ 1000 nM.

As to `O=C(NC1CCN(C(=O)c2ccc(Nc3nccc(-c4ccc(Cl)cc4)n3)cc2)CC1)N1CCOCC1` [Compound 20-4], the IC50 under setting [1] is ≤ 500 nM and the IC50 under setting [2] was ≤ 1000 nM.

For the compound `CN(C)C(=O)NC1CCN(C(=O)c2ccc(Nc3nccc(-c4ccc(Cl)cc4)n3)cc2)CC1` [Compound 20-5], the IC50 was ≤ 500 nM under setting [1] and ≤ 1000 nM under setting [2].

Consider `COCC(=O)NC1CCN(C(=O)c2ccc(Nc3nccc(-c4ccc(Cl)cc4)n3)cc2)CC1` [Compound 20-6], for which the IC50 under setting [1] is ≤ 500 nM and the IC50 under setting [2] is ≤ 1000 nM.

As usually defined, the IC50 is the midpoint of a concentration-inhibition curve.

The values are drawn from patent publication US7442699B2, “Anilinopyrimidine derivatives as IKK inhibitors and compositions and methods related thereto” (Signal Pharmaceuticals, LLC, priority 2000, dated 2008).
